# Measured values taken from US10988465B2, “CXCR4 inhibitors and uses thereof” (X4 Pharmaceuticals, Inc., priority 2016, dated 2021).
# Key:
# [1] = target: T1, Jurkat cells expressing CXCR4 (Homo sapiens, UniProt P61073); assay: Chemokine (CXCL12-AF647) binding inhibition assay; details: CXCL12-AF647 25 ng/mL, read-out: IC50 CXCL-12 binding Jurkat
# T1 construct: endogenous in cells; host or cells: Jurkat
# Description: Chemokine (CXCL12-AF647) Binding Inhibition Assay
# Jurkat cells expressing CXCR4 were washed once with assay buffer (Hanks' balanced salt solution with 20 mM HEPES buffer and 0.2% bovine serum albumin, pH 7.4) and then incubated for 15 min at room temperature with the test compounds diluted in assay buffer at dose-dependent concentrations. Subsequently, CXCL12-AF647 (25 ng/mL) was added to the compound-incubated cells. The cells were incubated for 30 min at room temperature. Thereafter, the cells were washed twice in assay buffer, fixed in 1% paraformaldehyde in PBS, and analyzed on the FL4 channel of a FACSCalibur flow cytometer equipped with a 635-nm red diode laser (Becton Dickinson, San Jose, Calif., USA).
# The percentages of inhibition of CXCL12-AF647 binding were calculated according to the formula: [1−((MFI−MFINC)/(MFIPC−MFINC))]×100 where MFI is the mean fluorescence intensity of the cells incubated with CXCL12-AF647 in the presence of the inhibitor, MFINC is the mean fluorescence intensity measured in the negative control (i.e., autofluorescence of unlabeled cells), and MFIPC is the mean fluorescence intensity of the positive control (i.e., cells exposed to CXCL12-AF647 alone).
# [2] = in vitro; details: human, Caco-2, pH 7.4
# Description: Example 37: Caco-2 Permeability Assay
# The goal of this assay was to evaluate the intestinal absorption potential of drug candidates using Caco-2 cell lines.
# HBSS buffer with 0.3% DMSO and 5 μM LY: add 150 μL DMSO and 50 μL LY (5 mM) into 50 ml HBSS buffer (pH 7.4).
# HBSS buffer with 0.1% DMSO and 5 μM LY: add 50 μL DMSO and 50 μL LY (5 mM) into 50 mL HBSS buffer (pH 7.4).
# HBSS buffer with 0.3% DMSO: add 150 μL DMSO into 50 ml HBSS buffer (pH 7.4).
# HBSS buffer with 0.1% DMSO: add 50 μL DMSO into 50 ml HBSS buffer (pH 7.4).
# Prepare HBSS buffer with 0.4% DMSO: add 200 μL DMSO into 50 ml HBSS buffer (pH 7.4).
# Prepare HBSS buffer with 0.4% DMSO and 5 μM LY: add 200 μL DMSO and 50 μL LY (5 mM) into 50 ml HBSS buffer (pH 7.4).
# 4. Measure TEER Take cell culture plate out of incubator, wash the cell monolayers with HBSS buffer, and then measure TEER values at Rm temperature. 5. Centrifuge Centrifuge the compound solution (from step 3) at 4000 rpm for 5 min before loading to donor chambers. 6. Dosing Add solution based on the volumes listed in the following table (make sure to take extra 100 μL of donor sample for T0 as Backup).
# 7. Apical LYT0 samples To determine LY concentration in the apical chember, take 100 μL sample from apical chambers into an opaque plate for LYT0. 8. Prewarm Prewarm apical and basolateral plates at 37° C. for about 5 min, then begin transport by placing the apical plate onto basolateral plate. 9. Incubation Keep the plates in incubator at 37° C. for 90 min. 10. Standard Curve preparation
# 11. Transport termination Separate the apical plate from the basolateral plate after 90-min incubation.
# Receiver sample: 60 μL of receiver sample+60 μL ACN with IS (Osalmid or Imipramine)
# Study details: Test concentration 10 μM
# Test systems: Caco-2/HBSS solution
# Incubation conditions: 0, 90 min at 37° C.
# Sample size: Duplicates (n=2)
# Bioanalytical method: LC-MS/MS
# For Millicell-24 Cell Culture Plates: surface area of the membrane=0.7 cm^2, VA=0.8 mL (A-to-B) or 0.4 mL (B-to-A)
# 1. Papp values were calculated based on calculated concentrations.
# The compound numbers correspond to the compound numbers in Table 1.
# [3] = target: T2, CXCR-4 transfected U87 cell line (U87.CXCR4) (Homo sapiens, UniProt P61073); assay: Intracellular CXCL-12-induced calcium mobilization assay (FLIPR); type: cell-based; details: U87.CXCR4 cells; CXCL-12 25-50 ng/mL; compound added 15 min before; read-out: IC50 CXCL-12 Ca^2+ flux U87.CXCR4+
# T2 construct: expressed in transfected cells; host or cells: U87 (U87.CXCR4)
# Description: Example 36: REGA Screening Assay
# Intracellular CXCL-12-Induced Calcium Mobilization Assay
# Intracellular calcium mobilization induced by chemokines or chemokine-derived peptides were evaluated using a calcium responsive fluorescent probe and a FLIPR system. The CXCR-4 transfected U87 cell line (U87.CXCR4) cells were seeded in gelatine-coated black-wall 96-well plates at 20,000 cells per well and incubated for 12 hours. Cells were then loaded with the fluorescent calcium probe Fluo-2 acetoxymethyl at 4 μM final concentration in assay buffer (Hanks' balanced salt solution with 20 mM HEPES buffer and 0.2% bovine serum albumin, pH 7.4) for 45 min at 37° C. The intracellular calcium mobilization induced by the CXCL-12 (25-50 ng/mL) was then measured at 37° C. by monitoring the fluorescence as a function of time in all the wells simultaneously using a fluorometric imaging plate reader (FLIPR Tetra, Molecular Devices).
# T1 sequence (P61073 whole entry): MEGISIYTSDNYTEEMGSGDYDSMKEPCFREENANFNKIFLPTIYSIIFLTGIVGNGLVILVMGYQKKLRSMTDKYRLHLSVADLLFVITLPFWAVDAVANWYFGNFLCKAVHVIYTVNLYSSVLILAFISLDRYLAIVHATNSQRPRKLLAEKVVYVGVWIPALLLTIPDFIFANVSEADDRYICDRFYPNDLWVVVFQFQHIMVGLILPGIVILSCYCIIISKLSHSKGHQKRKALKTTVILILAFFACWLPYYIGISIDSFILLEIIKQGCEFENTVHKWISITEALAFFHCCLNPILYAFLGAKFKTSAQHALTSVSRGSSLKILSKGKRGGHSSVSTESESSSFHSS
# T2 sequence (P61073 whole entry): as above
SMILES,IC50 [1] [nM],"Papp A→B at 90 min, 10 μM [2] [×10⁻⁶ cm/s]","Papp B→A at 90 min, 10 μM [2] [×10⁻⁶ cm/s]","efflux ratio at 90 min, 10 μM [2]",IC50 [3] [nM]
Cc1cccnc1[C@@H]1CCC[C@H](c2nc3ccccc3n2CCC#N)N1 [I-159],≥ 1000,10 to 30,10 to 30,0.1 to 10,≥ 1000
Cc1cc(F)cnc1[C@@H]1CCC[C@H](c2nc3cccc(N4CCN(C)CC4)c3[nH]2)N1 [I-142],0.01 to 100,0.1 to 10,10 to 30,0.1 to 10,0.01 to 100
Cc1cccnc1[C@@H]1CCC[C@H](c2nc3ccccc3n2C2CCN(C)CC2)N1C [I-130],0.01 to 100,10 to 30,10 to 30,0.1 to 10,0.01 to 100
Cc1cccnc1[C@@H]1CCC[C@H](c2nccn2C2CCN(C)CC2)N1 [I-171],0.01 to 100,0.1 to 10,10 to 30,0.1 to 10,≥ 1000
CN1C2CCC1CN(c1cccc3nc([C@H]4CCC[C@@H](c5ncccc5Cl)N4)[nH]c13)C2 [I-119],0.01 to 100,10 to 30,10 to 30,0.1 to 10,100 to 1000
Cc1cccnc1[C@@H]1CCC[C@H](c2nc3cccc(N4CCN(C)C(C)(C)C4)c3[nH]2)N1C [I-55],0.01 to 100,10 to 30,10 to 30,0.1 to 10,0.01 to 100
Cc1cccnc1[C@@H]1CCC[C@H](c2nc3cccc(N4CC5CCC(C4)N5C)c3[nH]2)N1 [I-118],0.01 to 100,0.1 to 10,> 30,10 to 30,0.01 to 100
CN1CCN(c2cccc3nc([C@H]4CCC[C@@H](c5ncn6ccccc56)N4C)[nH]c23)CC1 [I-93],100 to 1000,10 to 30,10 to 30,0.1 to 10,≥ 1000
"Cc1cccnc1[C@@H]1CCC[C@H](c2nc3ccccc3n2CC2CCNCC2)N1C [I-14, 2-((2R,6S)-1-methyl-6-(3-methylpyridin-2-yl)piperidin-2-yl)-1-(piperidin-4-ylmethyl)-1H-benzo[d]imidazole]",0.01 to 100,0.1 to 10,10 to 30,> 30,0.01 to 100
Cc1cccnc1[C@@H]1CCC[C@H](c2nc3ccccc3n2CC2CCN(C)CC2)N1CC(F)(F)F [I-26],≥ 1000,10 to 30,10 to 30,0.1 to 10,≥ 1000
"CCN1CCC(Cn2c([C@H]3CCC[C@@H](c4ncccc4C)N3C)nc3ccccc32)CC1 [I-22, 1-((1-ethylpiperidin-4-yl)methyl)-2-((2R,6S)-1-methyl-6-(3-methylpyridin-2-yl)piperidin-2-yl)-1H-benzo[d]imidazole]",0.01 to 100,0.1 to 10,10 to 30,0.1 to 10,0.01 to 100
Cc1cccnc1[C@@H]1CCC[C@H](c2nc3cccc(N4C5CCC4CN(C)C5)c3[nH]2)N1C [I-57],0.01 to 100,10 to 30,10 to 30,0.1 to 10,0.01 to 100
Cc1cccnc1[C@@H]1CCC[C@H](c2nc3cccc(OC4CCN(C)CC4)c3[nH]2)N1C [I-42],0.01 to 100,0.1 to 10,10 to 30,0.1 to 10,0.01 to 100
Cc1cccnc1[C@@H]1CCC[C@H](c2nc3cccc(N4C5CCC4CNC5)c3[nH]2)N1C [I-99],0.01 to 100,0.1 to 10,> 30,> 30,0.01 to 100
CN1CCN(c2cccc3nc([C@H]4CCC[C@@H](c5ncccc5C(F)(F)F)N4C)[nH]c23)CC1 (relative stereo) [I-58],0.01 to 100,10 to 30,10 to 30,0.1 to 10,≥ 1000
"Cc1cccnc1[C@@H]1CCC[C@H](c2nc3ccccc3n2CCCN2CCOCC2)N1C [I-18, 4-(3-(2-((2R,6S)-1-methyl-6-(3-methylpyridin-2-yl)piperidin-2-yl)-1H-benzo[d]imidazol-1-yl)-propyl)morpholine]",0.01 to 100,10 to 30,10 to 30,0.1 to 10,0.01 to 100
"CCN1[C@@H](c2nc3ccccc3n2CC2CCN(C)CC2)CCC[C@H]1c1ncccc1C [I-25, 2-((2R,6S)-1-ethyl-6-(3-methylpyridin-2-yl)piperidin-2-yl)-1-((1-methylpiperidin-4-yl)methyl)-1H-benzo[d]imidazole]",0.01 to 100,0.1 to 10,10 to 30,0.1 to 10,0.01 to 100
Cc1cccnc1[C@@H]1CCC[C@H](c2nccn2C2CCN(C3CC3)CC2)N1C [I-174],0.01 to 100,10 to 30,10 to 30,0.1 to 10,100 to 1000
"Cc1cccnc1[C@@H]1CCC[C@H](c2nc3ccccc3[nH]2)N1CCc1ccccn1 [I-27, 2-((2R,6S)-6-(3-methylpyridin-2-yl)-1-(2-(pyridin-2-yl)ethyl)piperidin-2-yl)-1H-benzo[d]imidazole]",0.01 to 100,10 to 30,10 to 30,0.1 to 10,0.01 to 100
Cc1cccnc1[C@@H]1CCC[C@H](c2nc3cccc(OC4CCN(C(C)C)CC4)c3[nH]2)N1C [I-44],0.01 to 100,0.1 to 10,10 to 30,0.1 to 10,0.01 to 100
Cc1cccnc1[C@@H]1CCC[C@H](c2nc3cccc(N4CC5CC(C4)N5C)c3[nH]2)N1C [I-109],0.01 to 100,0.1 to 10,10 to 30,0.1 to 10,100 to 1000
Cc1ccnc([C@@H]2CCC[C@H](c3nc4cccc(N5CCN(C)CC5)c4[nH]3)N2C)c1Cl [I-116],0.01 to 100,10 to 30,10 to 30,0.1 to 10,100 to 1000
Cc1cccnc1[C@@H]1CCC[C@H](c2nc3cccc(N4CCN(C)C(C)C4)c3[nH]2)N1C (stereo partly shown) [I-53],0.01 to 100,10 to 30,10 to 30,0.1 to 10,0.01 to 100
